The nature of data set [1]: Hepatocyte stability assay (human). Type of data set: in vitro ADME. Particulars: cryopreserved hepatocytes, 10 μM compound, 0.5×10^6 cells/mL, 60 minutes, read-out: T½. The text has this:
(§1) Defrosted cryo-preserved hepatocytes (viability >70%) are used to determine the metabolic stability of a compound via calculation of intrinsic clearance (Clint; a measure of the removal of a compound from the liver in the absence of blood flow and cell binding). Clearance data are particularly important for in vitro work as they can be used in combination with in vivo data to predict the half-life and oral bioavailability of a drug.
(§2) The metabolic stability in hepatocytes assay involves a time-dependent reaction using both positive and negative controls. The cells must be pre-incubated at 37° C. then spiked with test compound (and positive control); samples taken at pre-determined time intervals are analysed to monitor the change in concentration of the initial drug compound over 60 minutes. A buffer incubation reaction (with no hepatocytes present) acts as a negative control and two cocktail solutions, containing compounds with known high and low clearance values (verapamil/7-hydroxycoumarin and propranolol/diltiazem), act as positive controls. • 1. The assay is run with a cell concentration of 0.5×10^6 cells/mL in Leibovitz buffer. • 2. All compounds and controls are run in duplicate. • 3. Compound concentration is 10 μM. • 4. All compounds and controls are incubated with both cells and buffer to show turnover is due to hepatic metabolism. • 5. All wells on the incubation plate will have 326.7 μL of either cells or buffer added. • 6. Prior to assay, cell and buffer-only incubation plates are preincubated for 10 mins at 37° C. • 7. The assay is initiated by adding compounds, 3.3 μL of 1 mM in 10% DMSO-90% Buffer; final DMSO concentration is 0.1%. • 8. Samples are taken at regular timepoints (0, 5, 10, 20, 40, 60 min) until 60 mins. • 9. Sample volume is 40 μL and it is added to 160 μL of crash solvent (acetonitrile with internal standard) and stored on ice. • 10. At the end of the assay, the crash plates are centrifuged at 3500 rpm for 20 mins at 4° C. • 11. 80 μL of clear supernatant is removed and mixed with 80 μL of deionised water before being analysed by LC-MS/MS.
(§3) Raw LC-MS/MS data are exported to, and analysed in, Microsoft Excel for determination of intrinsic clearance. The percentage remaining of a compound is monitored using the peak area of the initial concentration as 100%. Intrinsic clearance and half-life values are calculated using a graph of the natural log of percentage remaining versus the time of reaction in minutes. Half-life (min) and intrinsic clearance (Clint in μL min^−1 10^−6 cells) values are calculated using the gradient of the graph (the elimination rate constant, k) and Equations 1 and 2.

For the next data set, the system named is hepatocytes. The experiment in a line: Hepatocyte stability assay (human). Type of data set: in vitro ADME. Particulars: 10 μM compound, 0.5×10^6 cells/mL, 60 minutes.
Source text: as §1, §2, §3

The test system of data set [2] is IL-1β cytokine output from THP-1s. Kind of data set: THP-1 AlphaLISA IL-1β cytokine assay. It counts as cell-based, human. Particulars: Homo sapiens, THP-1, PMA-differentiated THP-1 cells, LPS 24 hr then Nigericin 1 hour; read-out: IL-1β (IC50). In short, it runs like this:
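Percent inhibition, normalised to plus- and minus-LPS controls, was plotted against concentration to derive IC50. Differentiated THP-1 cells received compound 30 min ahead of LPS (24 h) and a 1 h nigericin pulse; AlphaLISA quantified supernatant cytokine.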

Another data set relates to NRF2. The experiment in a line: NRF2 +/-GSH activation assay (DiscoverX PathHunter NRF2 translocation kit, U2OS cells). Particulars: Homo sapiens, GSH condition not stated in Table 5; for Emax: U2OS, normalised to dimethyl fumarate 'High' control, read-out: NRF2 activation Emax; for pEC50: U2OS PathHunter cells, 6 hours, read-out: NRF2 activation EC50. It counts as cell-based. In a few lines: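 Percent activation, normalised to dimethyl fumarate (high) and vehicle (low) controls, was fitted for EC50 after 6 hours treatment of U2OS PathHunter cells. In the +GSH arm compounds were first pre-incubated 30 minutes in 6 mM working GSH; NRF2 translocation read by chemiluminescent complementation.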

The structures appear in SMILES notation. pEC50, pIC50: −log10 of the molar value.

As for `C=C(CC(=O)OC1CC2(CCC2)C1)C(=O)OCC(=O)O` [Example 96, 2-((2-methylene-4-oxo-4-(spiro[3.3]heptan-2-yloxy)butanoyl)oxy)acetic acid], the half-life at 10 μM in data set [1] was found to be 126 min. Also, the “CIint (μL min^−1 10^−6 cells)” value in the data set with hepatocytes is given as 11 μL min^−1 10^−6 cells. Further, in data set [2], the pIC50 (as a rule, the negative decadic logarithm of the IC50, by convention in mol/L) is 4.80. Further, in the data set on NRF2, the Emax (usually the size of the effect at its maximum, as opposed to the concentration needed) was 180% and the pEC50 (commonly the negative decadic logarithm of the EC50, by convention in mol/L) is 4.67.

For the compound `C=C(CC(=O)OC1CCCCCCC1)C(=O)OCc1nnn[nH]1` [Example 134, 1-((1H-tetrazol-5-yl)methyl) 4-cyclooctyl 2-methylenesuccinate], in data set [1], the half-life at 10 μM was 53 min. Further, the “CIint (μL min^−1 10^−6 cells)” value with hepatocytes was 27 μL min^−1 10^−6 cells. Also, the negative logarithm of the IC50 (pIC50) in data set [2] is 5.01. Moreover, in the data set with NRF2, the Emax is 183% and the pEC50 was 4.70.

With `C=C(CC(=O)OC1CCCCCCC1)C(=O)OCC(=O)O` [Example 90, 2-((4-(cyclooctyloxy)-2-methylene-4-oxobutanoyl)oxy)acetic acid], the half-life at 10 μM in data set [1] stood at 183 min. Besides, in the data set with hepatocytes, the “CIint (μL min^−1 10^−6 cells)” value is 8 μL min^−1 10^−6 cells. For the same compound, the pIC50 in data set [2] is 4.79. For the same compound, in the data set with NRF2, the Emax stood at 157% and the pEC50 was 4.53.

`C=C(CC(=O)OC1CCCCCCC1)C(=O)OCCC(=O)O` [Example 82, 3-((4-(cyclooctyloxy)-2-methylene-4-oxobutanoyl)oxy)propanoic acid]: the half-life at 10 μM in data set [1] was 91 min. The “CIint (μL min^−1 10^−6 cells)” value in the data set with hepatocytes amounted to 15 μL min^−1 10^−6 cells. The pIC50 in data set [2] was 4.59. Also, in the data set on NRF2, the Emax is 164% and the pEC50 is 4.58.

In the case of `C=C(CC(=O)OC1CCCCC1)C(=O)OCc1nnn[nH]1` [Example 125, 1-((2H-tetrazol-5-yl)methyl) 4-cyclohexyl 2-methylenesuccinate], in data set [1], the half-life at 10 μM stood at 198 min. Moreover, the “CIint (μL min^−1 10^−6 cells)” value in the data set on hepatocytes was found to be 9 μL min^−1 10^−6 cells. Moreover, the pIC50 in data set [2] is 4.77. For the same compound, in the data set with NRF2, the Emax was 116% and the pEC50 is 4.42.

On to `C=C(CC(=O)O[C@H](C)CCCCCC)C(=O)OCCC(=O)O` [Example 88, (R)-3-((2-methylene-4-(octan-2-yloxy)-4-oxobutanoyl)oxy)propanoic acid], for which, in data set [1], the half-life at 10 μM stood at 13 min. Also, in the data set on hepatocytes, the “CIint (μL min^−1 10^−6 cells)” value is on record as 134 μL min^−1 10^−6 cells. In addition, the pIC50 in data set [2] was 4.60. Also, in the data set on NRF2, the Emax amounted to 139% and the pEC50 is 5.49.

As to `C=C(CC(=O)O[C@@H](C)CCCCCC)C(=O)OCC(=O)O` [Example 89, (S)-2-((2-methylene-4-(octan-2-yloxy)-4-oxobutanoyl)oxy)acetic acid], the half-life at 10 μM in data set [1] stood at 49 min. The “CIint (μL min^−1 10^−6 cells)” value with hepatocytes came to 29 μL min^−1 10^−6 cells. The pIC50 in data set [2] is 4.76. For the same compound, in the data set on NRF2, the Emax stood at 238% and the pEC50 is 4.65.

Take `C=C(CC(=O)OC(C)(C)CCCCCC)C(=O)OCC(=O)O` [Example 192, 2-((2-methylene-4-((2-methyloctan-2-yl)oxy)-4-oxobutanoyl)oxy)acetic acid]: the half-life at 10 μM in data set [1] amounted to 54 min. For the same compound, the “CIint (μL min^−1 10^−6 cells)” value in the data set with hepatocytes came out at 32 μL min^−1 10^−6 cells. Also, in data set [2], the pIC50 was 4.97. Further, in the data set with NRF2, the Emax came to 194% and the pEC50 was 4.93.

`C=C(CC(=O)OCCCCCCCC)C(=O)OCCC(=O)O` [Example 80, 3-((2-methylene-4-(octyloxy)-4-oxobutanoyl)oxy)propanoic Acid]: in data set [1], the half-life at 10 μM was 6 min. Also, in the data set with hepatocytes, the “CIint (μL min^−1 10^−6 cells)” value amounted to 243 μL min^−1 10^−6 cells. Further, the pIC50 in data set [2] is 5.02. In the data set with NRF2, the Emax came to 229% and the pEC50 is 4.67.

`C=C(CC(=O)O[C@@H](C)CCCCCC)C(=O)OCCc1nnn[nH]1` [Example 129, (S)-1-(2-(1H-tetrazol-5-yl)ethyl) 4-octan-2-yl 2-methylenesuccinate]: the half-life at 10 μM in data set [1] was found to be 108 min. For the same compound, in the data set with hepatocytes, the “CIint (μL min^−1 10^−6 cells)” value amounted to 55 μL min^−1 10^−6 cells. Also, in data set [2], the pIC50 is 5.26. In the data set with NRF2, the Emax amounted to 178% and the pEC50 is 5.24.

Regarding `C=C(CC(=O)OCCCOc1ccccc1)C(=O)OCCC(=O)O` [Example 86, 3-((2-methylene-4-oxo-4-(3-phenoxypropoxy)butanoyl)oxy)propanoic acid], the half-life at 10 μM in data set [1] came out at 31 min. Further, in the data set with hepatocytes, the “CIint (μL min^−1 10^−6 cells)” value came out at 44 μL min^−1 10^−6 cells. Also, the pIC50 in data set [2] is 4.00. In the data set on NRF2, the Emax worked out at 91% and the pEC50 is 4.68.

(Values after patent publication US12390437B2, “Itaconic acid derivatives and uses thereof intreating an inflammatory disease or a disease associated with an undesirable immune response” (Sitryx Therapeutics Limited, priority 2019, dated 2025).)
